Source: patent US20080200403A1, “9A-Carbamoyl and Thiocarbamoyl Azalides with Anti-Inflammatory Activity” (GLAXOSMITHKLINE, priority 2005, published 2008)
Read-outs that look alike come from different tables or passages of the source.

Experiments:
Format in all cases: cell-based
TNF-α = assay: Inhibition of TNF-α production by stimulated human peripheral blood leukocytes in vitro; conditions: Homo sapiens, Leukocyte, PBL, read-out: Percentage of inhibition of TNF-α production; for inhibition at 10 µM: compound 10 μM; for inhibition at 50 µM: compound 50 μM
How it was run: (§1)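 Dextran-isolated human PBL (3-5×10^6 per well) in RPMI with 10% FCS were preincubated 2 h at 37 °C with compounds at 50 μM or 10 μM final, then stimulated overnight with 2 μg/mL LPS, 1 μg/mL PMA or 120 μg/mL zymosan. Supernatant cytokines by sandwich ELISA; % inhibition versus stimulated untreated control.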

IL-1α = assay: Inhibition of IL-1 production by stimulated human peripheral blood leukocytes in vitro; conditions: Homo sapiens, Leukocyte, PBL, read-out: Percentage of inhibition of IL-1α production; for inhibition at 10 µM: compound 10 μM; for inhibition at 50 µM: compound 50 μM
IL-6 = assay: Inhibition of IL-6 production by stimulated human peripheral blood leukocytes in vitro; conditions: Homo sapiens, Leukocyte, PBL, read-out: Percentage of inhibition of IL-6 production; for inhibition at 10 µM: compound 10 μM; for inhibition at 50 µM: compound 50 μM
How it was run: as §1

IL-8 = assay: Inhibition of IL-8 production by stimulated human peripheral blood leukocytes in vitro; conditions: Homo sapiens, Leukocyte, PBL, read-out: Percentage of inhibition of IL-8 production; for inhibition at 10 µM: compound 10 μM; for inhibition at 50 µM: compound 50 μM
How it was run: as §1

A549 = assay: MTT cytotoxicity assay on A549 cell line; conditions: human, 24 h
Method: (§2) To determine whether the anti-inflammatory activity of the test compounds was due to observed inhibition of cytokine production and inhibition of proliferation in vitro, and was not a consequence of cellular cytotoxicity, measurement of succinate dehydrogenase activity in living cells was performed. Cells were cultured for 24 h in RPMI medium as described above at 37° C. in the presence of the test compounds at concentrations of 50 μM and 12.5 μM. MTT [3-(4,5-dimethylthiazole-2-yl)-2,5-diphenyl tetrazolium bromide] (Promega, USA), a detection reagent, was then added and the cultures were incubated for 0.5-2 h. The amount of MTT-Formazan produced was determined using a spectrophotometer at 490 nm (Mosmann, J. Imnunol. Methods, 1983, 65: 55-63). Percentage of viable cells was calculated using the following formula:
(§3) % viable cells=([…]OD490 treated cells/OD490 nontreated cells)×100

Hep G2 = assay: MTT cytotoxicity assay on Hep G2 cell line; conditions: human, 24 h
Method: as §2, §3

CC[C@H]1OC(=O)[C@H](C)[C@@H](O[C@H]2C[C@@](C)(OC)[C@@H](O)[C@H](C)O2)[C@H](C)[C@@H](O[C@@H]2O[C@H](C)C[C@H](N(C)C)[C@H]2O)[C@](C)(O)C[C@@H](C)CN(C(=O)NC(C)c2cccc3ccccc23)[C@H](C)[C@@H](O)[C@]1(C)O (some centres unmarked) [Compound 12]
inhibition at 10 µM (TNF-α; LPS stimulated): 28%
inhibition at 50 µM (TNF-α; LPS stimulated): 100%
inhibition at 10 µM (TNF-α; zymosan stimulated): 70%
inhibition at 50 µM (TNF-α; zymosan stimulated): 100%
inhibition at 10 µM (IL-1α; LPS stimulated): 52%
inhibition at 50 µM (IL-1α; LPS stimulated): 82%
inhibition at 10 µM (IL-1α; zymosan stimulated): 80%
inhibition at 50 µM (IL-1α; zymosan stimulated): 100%
inhibition at 10 µM (IL-6; LPS stimulated): 6%
inhibition at 50 µM (IL-6; LPS stimulated): 100%
inhibition at 10 µM (IL-6; zymosan stimulated): 88%
inhibition at 50 µM (IL-6; zymosan stimulated): 100%
inhibition at 10 µM (IL-8; LPS stimulated): 15%
inhibition at 50 µM (IL-8; LPS stimulated): 100%
inhibition at 10 µM (IL-8; zymosan stimulated): 40%
inhibition at 50 µM (IL-8; zymosan stimulated): 100%
Percentage of viable cells after treatment (A549; 12.5 μM): 94%
Percentage of viable cells after treatment (A549; 50 μM): 72%
Percentage of viable cells after treatment (Hep G2; 12.5 μM): 93%
Percentage of viable cells after treatment (Hep G2; 50 μM): 8%
